# Target: T1, pig liver glycolate oxidase (Sus scrofa, UniProt I3LVF1)
# T1 construct: The enzyme was pig liver glycolate oxidase; from tissue; host or cells: pig liver
# T1 sequence (I3LVF1 1-370): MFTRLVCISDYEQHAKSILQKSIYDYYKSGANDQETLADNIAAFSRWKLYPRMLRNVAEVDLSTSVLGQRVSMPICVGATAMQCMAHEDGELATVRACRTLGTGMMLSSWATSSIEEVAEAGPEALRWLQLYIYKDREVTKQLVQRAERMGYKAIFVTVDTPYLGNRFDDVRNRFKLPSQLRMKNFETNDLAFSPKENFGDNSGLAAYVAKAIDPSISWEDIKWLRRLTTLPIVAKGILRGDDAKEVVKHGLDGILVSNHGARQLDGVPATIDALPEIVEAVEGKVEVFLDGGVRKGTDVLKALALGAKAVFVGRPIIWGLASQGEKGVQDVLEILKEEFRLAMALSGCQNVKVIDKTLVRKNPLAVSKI
# Assay: Glycolate Oxidase Enzyme Inhibition
# Format: biochemical
# Conditions: 25° C., 0.10 M phosphate buffer, pH 7.0, 3 mM EDTA; 2×10^-4 M sodium glycolate; initial rates 1 to 3 minutes, 600 nm
# Procedure: The usefulness of the compounds of the present invention in treating urinary tract, especially renal, calcium oxalate lithiasis, is shown by the ability of those compounds to inhibit the glycolate oxidase enzyme. […] The activity of the enzyme, in turn, was measured by following the rate of reduction of sodium 2,6-dichlorophenyl-indophenol by sodium glycolate in the presence of the enzyme. The enzyme was pig liver glycolate oxidase. The reaction was followed spectrophotometrically at 600 nm. The assay was conducted at 25° C. in a 0.10 M phosphate buffer, pH 7.0, containing 3 mM EDTA. Initial substrate concentrations were 5×10^-5 M of […] and 2×10^-4 M of sodium glycolate. Reactions were initiated by the addition of enzyme. Initial rates during the period from 1 to 3 minutes after the addition of enzyme were recorded on a Beckman Acta M-VI spectrophotometer. One control was run simultaneously with three reactions, and all initial rates were adjusted to a common control rate. For further details of this procedure, see Randall et al., J. Med. Chem., 22, 6,612 (1979).
row,Structure (SMILES),IC50
1,"O=C(O)C(=O)CC(=O)c1ccc(C2CCCCC2)cc1 [4-(4-cyclohexylphenyl)-2,4-dioxo-1-butanoic acid]",2500 nM
2,"CCCCCCCCCc1ccc(C(=O)CC(=O)C(=O)O)cc1 [2,4-dioxo-4-(4-nonylphenyl)-1-butanoic acid]",670 nM

# More lines, now with the values ahead:
row,IC50,Structure (SMILES)
1,460 nM,"O=C(O)C(=O)CC(=O)c1ccc(Cc2ccc(Cl)c(Cl)c2)cc1 [4-[4-(3,4-dichlorophenylmethyl)phenyl]-2,4-dioxo-1-butanoic acid]"
2,70 nM,"O=C(O)C(=O)CC(=O)c1ccc(-c2ccc(Br)cc2)cc1 [4-[(4'-bromo-1,1'-biphenyl)-4-yl]-2,4-dioxo-1-butanoic acid]"
3,2100 nM,"O=C(O)C(=O)CC(=O)c1ccc(C2CCCc3ccccc32)cc1 (centres unmarked) [4-[4-(1,2,3,4-tetrahydro-1-naphthalenyl)phenyl]-2,4-dioxo-1-butanoic acid]"
